Measurements taken from US20250257041A1, “INDUCERS OF INTEGRATED STRESS RESPONSE TO TREAT CANCER” (The Board of Regents of The University of Texas System, priority 2022, published 2025).
Where two headings read alike, the source gives them in different places.

Experiments:
[1] = tested on: HCT116 WT; assay: Proliferation of HCT116 colorectal cell line, Cell TiterGlo; assay type: cell-based, human
Summary of the method: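 HCT116 colorectal cells, wild type, GCN2 CRISPR knockout, or wild type plus ISRIB; proliferation read by CellTiter-Glo luminescence. 10-point dose response in triplicate, IC50 reported; multiple values are independent experiments.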

[2] = tested on: Jurkat cells; assay: Jurkat cell proliferation over three days, Cell Titer Glo; assay type: cell-based, human
Protocol: (§1) FIG. 5A provides cell proliferation studies using Jurkat cells using exemplary novel compounds provided in the current disclosure. Jurkat cells, which are derived from a human leukemia, were incubated with varying concentrations of SW388710. Cell proliferation over three days was evaluated using luminescence from Cell Titer Glo (Promega) which reflects ATP levels.
as §1, with “5B” for “5A”, “SW393071.” for “SW388710.”

[3] = tested on: HCT116 GCN2KO; assay: Proliferation of HCT116 cells with GCN2 knocked out (CRISPR), Cell TiterGlo; assay type: cell-based, human; conditions: for IC50: Homo sapiens
Protocol: Briefly, compounds were tested for their effect on proliferation of HCT116 colorectal cell lines using Cell TiterGlo (Promega). Each compound was tested in a 10-point dose response experiment in triplicate. Multiple values in the column titled HCT116 WT reflect separate independent experiments. The three columns titled “HCT116 WT (repeat)”, “HCT116-CGN2KO” and “HCT116 WT+ISRIB” provide data for selected compounds that were tested simultaneously under three conditions. The HCT116 WT column lists IC50 against the wild type HCT116 colorectal cancer cell line. The HCT116-CGN2KO lists IC50 data for cells in which one component of the integrated stress response, GCN2, has been knocked out using CRISPR technology.

[4] = tested on: phospho-GCN2; assay: Western blot for phospho-GCN2 in HCT116 wild-type and RPS23 mutant cells; assay type: cell-based, human; conditions: wild-type HCT116 versus RPS23 del R107-G109 mutant
Protocol: FIG. 12 is a western blot analysis showing the RPS23 is required for induction of GCN2 phosphorylation by SW710 (SW388710). Cells were incubated with SW710, lysed, then evaluated via western blot for phospho-GCN2, a marker of activation of the integrated stress response.
To confirm this hypothesis, wild-type HCT116 cells and HCT116 RPS23 del R107-G109 mutant cells were incubated with SW388710. Cells were lysed and evaluated via western blot for phospho-GCN2, a marker of activation of the integrated stress response.

[5] = tested on: Jurkat (Leukemia) cells; assay: Jurkat viability and cytotoxicity, GF-AFC and Cytox; assay type: cell-based, human; conditions: varying doses
Protocol: FIG. 6A provides cytotoxicity studies for leukemia cells (Jurkat) with compound SW388710. […] Jurkat (Leukemia) cells were incubated with varying doses of SW388710.

[6] = tested on: HCT-116 (colorectal) cells; assay: HCT-116 viability and cytotoxicity, GF-AFC and Cytox; assay type: cell-based, human; conditions: varying doses
Protocol: FIG. 6B provided cytostatic data for colorectal cells, with compound SW388710. […] HCT-116 (colorectal) cells were incubated with varying doses of SW388710.

[7] = Solubility remark printed in the HCT116 WT column; assay type: physicochemical; conditions: cell wraps over r19 and r20: poor solubility
[8] = biological target: T1, RPS23 (Homo sapiens, UniProt P62266); assay: Photo-crosslinking in HCT116 cells, biotin-azide click, streptavidin pull-down, western blot for RPS23; assay type: binding; conditions: HCT116 wild-type or RPS23 del R107-G109 mutant, UV irradiation
T1 construct: endogenous in cells; host or cells: HCT116
Protocol: Next HCT116 cells were incubated with SW393071 analogs conjugated to a photo-crosslinker (analogs: SW393065, SW393212 and SW393213), and irradiated with UV light. The cells were lysed and click-conjugated to biotin-azide. Drug-bound proteins were pulled down with streptavidin coated beads and resolved on an SDS-PAGE gel.
Wild-type or RPS23 del R107-G109 knock-in mutant HCT116 cells were incubated with photo-crosslinker analog SW393212 and irradiated with UV light. The cells were lysed, and click-conjugated to biotin-azide essentially as shown in Example 7. Drug-bound proteins were pulled down with streptavidin coated beads and resolved on an SDS-PAGE gel.

[9] = Homo sapiens, HCT-116, wild type HCT116, 10-point dose response in triplicate, multiple values = separate independent experiments, read-out: HCT116 IC50 (uM) HCT116 WT
[10] = Homo sapiens, HCT-116, wild type HCT116, tested simultaneously with GCN2KO and +ISRIB, read-out: HCT116 IC50 (uM) HCT116 WT (repeat)
[11] = wild type HCT116, compound plus 10 nM of ISRIB, read-out: HCT116 IC50 (uM) HCT116 WT + ISRIB
[12] = HCT-116, HCT116 cells with GCN2 knocked out using CRISPR, read-out: HCT116 IC50 (uM) HCT116 − GCN2KO
[13] = Homo sapiens, HCT-116, read-out: HCT116 IC50 (uM) HCT116 WT (repeat)
[14] = HCT-116, read-out: HCT116 IC50 (uM) HCT116 − GCN2KO

SMILES | IC50 [1, 9] | IC50 [1, 10] | IC50 [1, 11] | IC50 [3, 12] | other results
COc1cccc(C(=O)Nc2cc(-c3ccc(NC(=O)c4ccccc4)cc3)nn2C)c1 [SW388710, N-(3-(4-Benzamidophenyl)-1-methyl-1H-pyrazol-5-yl)-3-methoxybenzamide] | 0.23 µM | 0.21 µM | 1.89 µM | 1.95 µM | IC50 ([2]; Homo sapiens, Jurkat, 72 h, three days, Cell Titer Glo luminescence): 78.2 nM; Effect of ISRIB on anti-proliferative activity in Jurkat cells ([2]; addition of 10 nM of ISRIB): relative resistance; Resistance on knockout of GCN2 ([3]; HCT116, GCN2 but not other activating kinases): confers resistance; Activation of the ISR (phosphorylation of GCN2) [4]: Wild-type but not RPS23 mutant cells, showed activation of the ISR; Cell death in leukemic cells [5]: induces cell death in leukemic cells; Proliferation of colorectal cancer cells [6]: reduces the proliferation of colorectal cancer cells
Cn1nc(-c2ccc(NC(=O)c3ccccc3)cc2)cc1NC(=O)c1ccc(C(=O)c2ccccc2)cc1 [SW389003, N-(3-(4-Benzamidophenyl)-1-methyl-1H-pyrazol-5-yl)-4-benzoylbenzamide] | – | – | – | – | IC50 [1, 13]: ≥ 50 µM; Solubility (remark in place of an IC50) [7]: poor; IC50 [3, 14]: ≥ 50 µM
COC(=O)c1ccc(C(=O)Nc2cc(-c3ccc(NC(=O)c4ccccc4)cc3)nn2C)cc1 [SW393130, methyl 4-((3-(4-benzamidophenyl)-1-methyl-1H-pyrazol-5-yl)carbamoyl)benzoate] | 0.92 µM | 1.87 µM | – | ≥ 50 µM | –
Cn1nc(-c2ccc(NC(=O)c3ccccc3)cc2)cc1NC(=O)c1ccc(Cl)cc1 [SW393132, N-(3-(4-benzamidophenyl)-1-methyl-1H-pyrazol-5-yl)-4-chlorobenzamide] | > 50 µM | ≥ 50 µM | – | ≥ 50 µM | –
Cn1nc(-c2ccc(NC(=O)c3ccccc3Br)cc2)cc1NC(=O)c1ccccc1 [SW393133, N-(4-(5-benzamido-1-methyl-1H-pyrazol-3-yl)phenyl)-2-bromobenzamide] | 0.01 µM | 0.03 µM | 0.3 µM | 0.21 µM | –
Cc1ccccc1C(=O)Nc1ccc(-c2cc(NC(=O)c3ccccc3)n(C)n2)cc1 [SW393134, N-(4-(5-benzamido-1-methyl-1H-pyrazol-3-yl)phenyl)-2-methylbenzamide] | 0.012 µM | 0.02 µM | 0.19 µM | 0.17 µM | –
C#CCOc1ccc(C(=O)c2cccc(C(=O)Nc3cc(-c4ccc(NC(=O)c5ccccc5Cl)cc4)nn3C)c2)cc1 [SW393141, 2-Chloro-N-(4-(1-methyl-5-(3-(4-(prop-2-yn-1-yloxy)benzoyl)benzamido)-1H-pyrazol-3-yl)phenyl)benzamide] | 0.12 µM | 0.3 µM | 0.41 µM | 0.49 µM | –
Cn1nc(-c2ccc(NC(=O)c3ccccc3Cl)cc2)cc1NC(=O)c1ccc(C2(C(F)(F)F)N=N2)cc1 [SW393142, 2-Chloro-N-(4-(1-methyl-5-(4-(3-(trifluoromethyl)-3H-diazirin-3-yl)benzamido)-1H-pyrazol-3-yl)phenyl)benzamide] | – | – | – | – | IC50 ([1]; Homo sapiens, HCT-116, read-out: HCT116 IC50 (uM) HCT116 WT): 3.6 µM; IC50 [1, 13]: 1.59 µM; IC50 ([1]; read-out: HCT116 IC50 (uM) HCT116 WT + ISRIB, wild type HCT116, compound plus 10 nM of ISRIB): 3.41 µM; IC50 [3, 14]: 3.22 µM
Cn1nc(-c2ccc(NC(=O)c3ccccc3[N+](=O)[O-])cc2)cc1NC(=O)c1ccccc1 [SW393143, N-(4-(5-benzamido-1-methyl-1H-pyrazol-3-yl)phenyl)-2-nitrobenzamide] | 0.01 µM | 0.02 µM | 0.14 µM | 0.12 µM | –
Cn1nc(-c2ccc(NC(=O)c3c(Cl)cccc3Cl)cc2)cc1NC(=O)c1ccccc1 [SW393144, N-(4-(5-benzamido-1-methyl-1H-pyrazol-3-yl)phenyl)-2,6-dichlorobenzamide] | 0.13 µM | 0.43 µM | 2.55 µM | 2.31 µM | –
C#CCOc1ccccc1C(=O)Nc1ccc(-c2cc(NC(=O)c3ccccc3)n(C)n2)cc1 [SW393168, N-(4-(5-benzamido-1-methyl-1H-pyrazol-3-yl)phenyl)-2-(prop-2-yn-1-yloxy)benzamide] | 0.34 µM | 1.02 µM | 3.23 µM | 2.95 µM | –
CSc1ccccc1C(=O)Nc1ccc(-c2cc(NC(=O)c3ccccc3)n(C)n2)cc1 [SW393169, N-(4-(5-benzamido-1-methyl-1H-pyrazol-3-yl)phenyl)-2-(methylthio)benzamide] | 0.01 µM | 0.06 µM | 0.49 µM | 0.41 µM | –
Cn1nc(-c2ccc(NC(=O)c3ccccc3N=[N+]=[N-])cc2)cc1NC(=O)c1ccccc1 [SW393170, N-(4-(5-benzamido-1-methyl-1H-pyrazol-3-yl)phenyl)-2-azidobenzamide] | 0.03 µM | 0.12 µM | 0.84 µM | 0.93 µM | –
Cn1nc(-c2ccc(NC(=O)c3cc(N=[N+]=[N-])ccc3Cl)cc2)cc1NC(=O)c1ccccc1 [SW393171, 5-azido-N-(4-(5-benzamido-1-methyl-1H-pyrazol-3-yl)phenyl)-2-chlorobenzamide] | 0.19 µM | 0.49 µM | 2.33 µM | 2.78 µM | –
Cn1nc(-c2ccc(NC(=O)c3ccccc3Cl)cc2)cc1NC(=O)c1cccc(C2(C(F)(F)F)N=N2)c1 [SW393172, 2-Chloro-N-(4-(1-methyl-5-(3-(3-(trifluoromethyl)-3H-diazirin-3-yl)benzamido)-1H-pyrazol-3-yl)phenyl)benzamide] | 3.6 µM | 5.08 µM | 5.25 µM | 4.37 µM | –
C#CCN(C(=O)c1ccccc1Cl)c1ccc(-c2cc(NC(=O)c3cccc(C4(C(F)(F)F)N=N4)c3)n(C)n2)cc1 [SW393173, 2-Chloro-N-(4-(1-methyl-5-(3-(3-(trifluoromethyl)-3H-diazirin-3-yl)benzamido)-1H-pyrazol-3-yl)phenyl)-N-(prop-2-yn-1-yl)benzamide] | 2.4 µM | 4 µM | 3.11 µM | 2.9 µM | –
C#CCN(C(=O)c1ccccc1Cl)c1ccc(-c2cc(NC(=O)c3ccccc3)n(C)n2)cc1 [SW393174, N-(4-(5-Benzamido-1-methyl-1H-pyrazol-3-yl)phenyl)-2-chloro-N-(prop-2-yn-1-yl)benzamil-de] | 6.1 µM | 7.18 µM | 6.52 µM | 6.37 µM | –
C#Cc1cccc(C(=O)Nc2cc(-c3ccc(NC(=O)c4cc(N=[N+]=[N-])ccc4Cl)cc3)nn2C)c1 [SW393212, 5-Azido-2-chloro-N-(4-(5-(3-ethynylbenzamido)-1-methyl-1H-pyrazol-3-yl)phenyl)benza-mide] | 0.72 µM | – | – | – | RPS23 bands after photo-crosslinking pull-down [8]: bands from WT but not RPS23 mutant cells
